The results in this text go back to ChEMBL document CHEMBL1158593, “Structure-activity relationships in human toll-like receptor 7-active imidazoquinoline analogues” (J Med Chem, 2010).

For the experiment, the target named is T1, Toll-like receptor 7 (Homo sapiens, UniProt Q9NYK1).
T1 sequence (Q9NYK1 whole entry): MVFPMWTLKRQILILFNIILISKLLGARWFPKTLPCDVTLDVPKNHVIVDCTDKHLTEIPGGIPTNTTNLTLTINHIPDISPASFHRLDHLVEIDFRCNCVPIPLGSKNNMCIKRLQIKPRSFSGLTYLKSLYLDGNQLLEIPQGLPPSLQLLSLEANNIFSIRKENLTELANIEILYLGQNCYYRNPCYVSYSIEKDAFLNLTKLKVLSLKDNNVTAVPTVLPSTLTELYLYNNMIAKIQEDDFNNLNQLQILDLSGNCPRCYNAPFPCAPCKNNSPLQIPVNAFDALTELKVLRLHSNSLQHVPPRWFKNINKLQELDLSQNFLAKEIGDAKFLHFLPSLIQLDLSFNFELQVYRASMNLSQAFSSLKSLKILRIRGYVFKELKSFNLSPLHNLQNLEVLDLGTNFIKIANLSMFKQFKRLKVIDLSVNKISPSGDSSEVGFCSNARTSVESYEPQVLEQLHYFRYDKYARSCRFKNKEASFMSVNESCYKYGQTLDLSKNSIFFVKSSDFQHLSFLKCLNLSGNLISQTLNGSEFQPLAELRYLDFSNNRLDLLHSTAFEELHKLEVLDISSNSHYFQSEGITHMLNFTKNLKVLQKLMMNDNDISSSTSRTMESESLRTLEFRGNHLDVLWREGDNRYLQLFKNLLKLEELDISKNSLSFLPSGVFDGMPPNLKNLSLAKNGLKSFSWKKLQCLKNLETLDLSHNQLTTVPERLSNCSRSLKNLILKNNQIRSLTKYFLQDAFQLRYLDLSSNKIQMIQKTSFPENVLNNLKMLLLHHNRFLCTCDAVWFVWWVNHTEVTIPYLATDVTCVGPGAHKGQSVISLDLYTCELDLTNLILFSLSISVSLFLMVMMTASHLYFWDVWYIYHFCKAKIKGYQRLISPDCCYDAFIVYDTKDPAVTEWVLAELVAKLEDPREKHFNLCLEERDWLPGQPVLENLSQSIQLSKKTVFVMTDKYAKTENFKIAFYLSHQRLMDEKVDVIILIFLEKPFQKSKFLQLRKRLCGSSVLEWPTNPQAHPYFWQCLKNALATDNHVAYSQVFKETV
Description: Agonist activity at human TLR7 expressed in NF-kappaB-stimulated HEK293 cells assessed as induction of secreted alkaline phosphatase expression by reporter gene assay
In the case of `CCCCc1nc2c(NN)nc3ccccc3c2n1Cc1ccccc1`, the EC50 – broadly, the concentration giving half of the maximal effect – was found to be 873 nM. That is a sub-micromolar value.

`CCCCc1nc2c(N)nc3ccccc3c2n1Cc1ccccc1` came in with an EC50 of 59.1 nM.

Regarding `CCCCCCc1nc2c(N)nc3ccccc3c2n1Cc1ccccc1`, a half-maximal response (EC50) required 479 nM.

`CCCCCCCc1nc2c(N)nc3ccccc3c2n1Cc1ccccc1` gave an EC50 of 822 nM.

The compound `CCCc1nc2c(N)nc3ccccc3c2n1Cc1ccccc1` showed an EC50 of 647 nM.

Turning to `CCCCCc1nc2c(N)nc3ccccc3c2n1Cc1ccccc1`, a half-maximal effect (EC50) was put at 91.5 nM.

Take `CCCCCCCCCc1nc2c(N)nc3ccccc3c2n1Cc1ccccc1`: the EC50 was 3350 nM.

As to `Cc1nc2c(N)nc3ccccc3c2n1Cc1ccccc1`, a half-maximal effect (EC50) was put at 955 nM.

On to `CC(C)Cn1cnc2c(N)nc3ccccc3c21` [IMIQUIMOD], for which it took 2120 nM to reach a half-maximal effect (EC50).

For `C=CCCc1nc2c(N)nc3ccccc3c2n1Cc1ccccc1`, the EC50 was determined as 262 nM. Against the preceding compound, the EC50 is about 8.1-fold lower.

Turning to `CCc1nc2c(N)nc3ccccc3c2n1Cc1ccccc1`, the EC50 is 472 nM. This EC50 lies about 1.8-fold higher than the previous one.

Consider `CCNCc1nc2c(N)nc3ccccc3c2n1Cc1ccccc1`, for which a half-maximal response (EC50) required 385 nM. The EC50 values of the last two compounds are within 1.5-fold of each other.

Compound `C#CCCc1nc2c(N)nc3ccccc3c2n1Cc1ccccc1` yielded an EC50 of 209 nM. This EC50 lies about 1.8-fold lower than the previous one.

`CCN(CCC#N)Cc1nc2c(N)nc3ccccc3c2n1CC(C)(C)O`: the EC50 was 8390 nM. Compared with the last compound, the EC50 is about 40-fold higher.

`CCCCc1nc2c(NO)nc3ccccc3c2n1Cc1ccccc1` gave an EC50 of 723 nM.

In the case of `CCN(CC)Cc1nc2c(N)nc3ccccc3c2n1CC(C)(C)O`, the EC50 was 7710 nM.
